Ends that are not written are not given here.
Tests used:
[1] = test system: middle cerebral artery (MCA) temporary occlusion stroke model; assay: Temporary MCA occlusion stroke model; type: in vivo, Sprague-Dawley rats
Protocol: (§1) The in vivo neuroprotective effects of CMX-9236 were investigated in both temporary and permanent occlusion stroke models in Sprague-Dawley rats using an intraluminal suture of the middle cerebral artery (MCA) occlusion method (Zea Longa et al., Stroke, 20: 84 (1989)). Briefly, a 4-0 silicone-coated suture was inserted through the right common carotid artery to block the MCA orifice. In the temporary model, CMX-9236 (6.2 mg/kg/hr) or vehicle was administered via the femoral vein at 30 minutes after the start of a 2-hour occlusion for a 4-hour continuous infusion; the rats were then reperfused by withdrawing the suture at […] after the MCA occlusion. All experiments were performed in a blinded and randomized manner, and rectal temperature was maintained at 37° C. The animals were sacrificed, and their brains were removed, sectioned into six 2-mm-thick coronal slices and stained with 2,3,5-triphenyltetrazolium chloride solution (Bederson et al., Stroke, 17:1304 (1986)) to visualize the extent of brain damage for the calculation of the corrected hemispheric infarct volumes (Nagasawa and Kogure, Stroke, 20:1037 (1989); Li et al., J. Cereb. Blood Flow Metab., 17:1132 (1997)). […] This represents a significant reduction of infarct size (35±5%, p=0.01, student t-test) for the CMX-9236-treated group in the temporary occlusion model. There was also a 58+11% improvement in the neurological scoring (Minematsu et al., Neurology, 42:235 (1992)) for the peptide-treated group versus controls at the end of 24 hours.

catalase (CAT) protein = assay: Western immunoblot of CAT protein in rat primary cortical cultures; type: cell-based; conditions: Dose 67 pmol/ml, 5 hours at 37° C.
Protocol: Tissue culture experiments were carried out using primary cultures of rat brain cortical cells as previously described above in Example 2. Primary cultures from embryonic rat brain isolated at E-21 (21 day embryos) and incubated for five hours with various doses: 1, 10, 100 ng/ml of CMX-99672. Cytoplasmic proteins were isolated and analyzed for upregulation of SOD and CAT by Western immunoblots as described above. […] The Western blot was scanned to quantify the fold-increase in SOD production in cell cultures treated with the CMX-99672 peptide compound.
Representative peptide compounds were tested at various doses and compared for their ability to upregulate expression of genes for SOD and/or CAT in rat primary cortical cultures basically as described above. Cultures were incubated with a peptide compound for 5 hours at 37° C. Cytoplasmic protein fractions were prepared as described above. Cytoplasmic proteins were separated by gel electrophoresis and analyzed by Western immunoblots using antisera to SOD and CAT, respectively (Rockland, Inc., Gilbertsville, Pa.).

[2] = test system: middle cerebral artery (MCA) permanent occlusion stroke model; assay: Permanent MCA 24-hour occlusion stroke model; type: in vivo, Sprague-Dawley rats
Protocol: as §1
In the permanent occlusion stroke model, the blood flow to the MCA territory was blocked for the total 24-hour period. A continuous i.v. infusion (0.5 ml/hr) of the CMX-9236 peptide (2.04 mg/kg/hr) or vehicle was initiated at 30 minutes after occlusion for 6 hours, followed by a bolus i.v. infusion of CMX-9236 (4.0 mg/kg in 0.5 ml delivered over 10 minutes) or vehicle at 12 hours after occlusion. The corrected infarct volumes were 127.5±18 mm^3 versus 216±18 mm^3 for drug-treated animals and controls, respectively. This represents a significant decrease (41±5%, p=0.003, student t-test) in infarct size for the drug-treated group as compared to the vehicle-treated control group (n=10 per group) in the permanent model, indicating a substantial rescue of brain tissue. These findings indicate that CMX-9236 has neuroprotective properties post-trauma in vivo, reducing the brain damage generated by cerebral ischemia.

[3] = test system: superoxide dismutase-1 (SOD-1) mRNA; assay: RT-PCR upregulation of SOD-1 mRNA in rat primary cortical cell cultures; type: cell-based; conditions: 100 ng/ml
Protocol: The RT-PCR method (see, for example, Innis et al., PCR Protocols: A Guide to Methods and Applications, (Academic Press, San Diego, 1990)) was used to investigate the upregulation of the specific mRNA that codes for the enzyme superoxide dismutase (SOD).
Primary cortical cultures were obtained by growing newborn rat brain cortical cells in Delbecco's modified Eagle medium supplemented with 25 μg/ml of gentamycin and 10% fetal calf serum. The cells were isolated from the E-21 cortex of rat brain, plated at a density of 1×10^5 per ml and grown to confluence within four to five days in an atmosphere containing air and 5% CO2 at 37° C. as described in Cornell-Bell et al., Science, 247: 470-473 (1990) and Cell Calcium, 12: 185-204 (1991). Cultures were grown in 20 ml flasks as a monolayer and then exposed to various concentrations of peptides for studies of the effects of peptides on upregulation of genes for SOD and CAT and on the transmigration of transcription factor AP-1 to cell nuclei.
Primary cultures of rat brain cortical cells were incubated with 100 ng/ml of peptide compound CMX-9236 for durations of 0 to 48 hours. mRNA was isolated from the cytoplasmic fraction of lysed cells according to standard methods (Angel et al., Cell 49:729-739, 1987). The RNA was incubated according to the RT-PCR protocol with two strands, 20 nucleotides long, one for the sense and one from the antisense strand. The sequences were selected to be unique for superoxide dismutase-1 (SOD-1), and to span one intron segment. […] The sequence of the two probe segments of the oligo dT segments for SOD are as follows: anti-sense strand, […] (SEQ ID NO:29), and sense strand, […] (SEQ ID NO:30). These span a sequence of 208 base pairs (bp) on the primary SOD sequence. The mixture was then treated with reverse transcriptase to obtain the cDNA according to standard PCR methods. The cDNA was then analyzed by electrophoresis and separated according to sequence lengths on a non-denaturing 5% polyacrylamide gel. The electrophoretically separated molecules were treated with ethidium bromide to stain double-stranded DNA fragments. These were visualized by ultraviolet illumination and photographed. The gels were then analyzed by a laser scanning fluorescence detector to quantitate the amount of messenger RNA for the extent of upregulation of SOD message and its time course of synthesis as a function of stimulation by CMX-9236. Similar methods of analysis were used for other peptides.

**Q.** Which “corrected infarct volume (mean±S.E.)” value ([1]; 6.2 mg/kg/hr i.v., 4-hour infusion from 30 min after start of occlusion, n=10) does the source give for “KKDGDGDFAIDAPE [CMX-9236, uncapped peptide]” here?
**A.** Its value is 117.3±17 mm^3.

**Q.** What about the “reduction of infarct size vs vehicle” value ([1]; 6.2 mg/kg/hr, p=0.01) of the same sequence?
**A.** The value was 35±5%.

**Q.** What about the “improvement in neurological scoring vs controls” value ([1]; at the end of 24 hours) of the same sequence?
**A.** The value was 58+11%.

**Q.** And the CAT (catalase (CAT) protein)?
**A.** The CAT was 652 % Control.

**Q.** And the corrected infarct volume ([2]; 2.04 mg/kg/hr i.v. for 6 hours from 30 min, plus 4.0 mg/kg bolus at 12 hours, n=10)?
**A.** Its corrected infarct volume is 127.5±18 mm^3.

**Q.** What about the “decrease in infarct size vs vehicle” value ([2]; 2.04 mg/kg/hr infusion plus 4.0 mg/kg bolus, p=0.003) of the same sequence?
**A.** The value was 41±5%.

**Q.** And the “time until SOD-1 mRNA stimulation returns to control levels” value [3]?
**A.** Its value is ≤ 24 h.

**Q.** And the “upregulation of SOD-1 mRNA transcripts” value ([3]; rat primary cortical cells, 3 hours incubation)?
**A.** The value was 9 fold.

From patent publication US8772237B2, “Compositions and methods for counteracting effects of reactive oxygen species and free radicals” (Ischemix, Inc., priority 1999, dated 2014)
